We go through five molecules from patent publication US4103008A, “7[2(2,3 Dioxopiperazin-1-yl-carbonylamino)substituted 2 phenylacetamido]-3-2'-thiadiazolyl cephalosporanic acid derivatives” (priority 1976, dated 1978).

In the test the test system is Pseudomonas aeruginosa E2. The experiment in a line: MIC against Pseudomonas aeruginosa E2. Format: cell-based.

Values after ≈ are worked out from the molar mass of the structure shown.

As for `CCN1CCN(C(=O)N[C@@H](C(=O)NC2C(=O)N3C(C(=O)O)=C(CSc4nncs4)CS[C@H]23)c2ccc(OC(=O)CC(C)=O)cc2)C(=O)C1=O` (single isomer, unassigned) [Example 9, 7-[D(-)-α-(4-ethyl-2,3-dioxopiperazin-1-yl-carbonylamino)-p-acetoacetoxyphenylacetamido]-3-(1,3,4-thiadiazol-2-yl-thiomethyl)-3-cephem-4-carboxylic acid], the MIC (as a rule, the lowest concentration that inhibits growth of the organism) came out at 6.25 µg/mL (≈ 8.54 µM).
The same measure for `CCOC(=O)Oc1ccc([C@@H](NC(=O)N2CCN(CC)C(=O)C2=O)C(=O)NC2C(=O)N3C(C(=O)O)=C(CSc4nnc(C)s4)CS[C@H]23)cc1Cl` (single isomer, unassigned) [Example 12, 7-[D(-)-α-(4-ethyl-2,3-dioxopiperazin-1-yl-carbonylamino)-m-chloro-p-ethoxycarbonyloxyphenylacetamido]-3-(5-methyl-1,3,4-thiadiazol-2-yl-thiomethyl)-3-cephem-4-carboxylic acid]: 12.5 µg/mL (≈ 16.3 µM).
`CCN1CCN(C(=O)N[C@@H](C(=O)NC2C(=O)N3C(C(=O)O)=C(CSc4nncs4)CS[C@H]23)c2ccc(OC(=O)CC(C)=O)c(Cl)c2)C(=O)C1=O` (single isomer, unassigned) [Example 10, 7-[D(-)-α-(4-ethyl-2,3-dioxopiperazin-1-yl-carbonylamino)-m-chloro-p-acetoacetoxyphenylacetamido]-3-(1,3,4-thiadiazol-2-yl-thiomethyl)-3-cephem-4-carboxylic acid]: inhibition of growth (MIC) required 3.13 µg/mL (≈ 4.08 µM).
For `CCOC(=O)Oc1ccc([C@@H](NC(=O)N2CCN(CC)C(=O)C2=O)C(=O)NC2C(=O)N3C(C(=O)O)=C(CSc4nnc(C)s4)CS[C@H]23)cc1` (single isomer, unassigned) [Example 11, 7-[D(-)-α-(4-ethyl-2,3-dioxopiperazin-1-yl-carbonylamino)-p-ethoxycarbonyloxyphenylacetamido]-3-(5-methyl-1,3,4-thiadiazol-2-yl-thiomethyl)-3-cephem-4-carboxylic acid] the value was 12.5 µg/mL (≈ 17 µM); for `CCN1CCN(C(=O)N[C@@H](C(=O)NC2C(=O)N3C(C(=O)O)=C(CSc4nncs4)CS[C@H]23)c2ccc(OC(=O)OCC(C)C)cc2)C(=O)C1=O` (single isomer, unassigned) [Example 17, 7-[D(-)-α-(4-ethyl-2,3-dioxopiperazin-1-yl-carbonylamino)-p-iso-butoxycarbonyloxyphenylacetamido]-3-(1,3,4-thiadiazol-2-yl-thiomethyl)-3-cephem-4-carboxylic acid], 12.5 µg/mL (≈ 16.7 µM).
